# From ChEMBL document CHEMBL3045359, “Synthesis, stereochemistry, and antimicrobial evaluation of t(3)-isopropyl-r(2), c(6)-di-2-furanylpiperidin- 4-one and its derivatives” (2006)
# Key:
# Format in all cases: functional
# Staphylococcus aureus = experiment: Antibacterial activity against Staphylococcus aureus after 24 hr by two-fold serial dilution method
# Enterococcus faecalis = experiment: Antibacterial activity against Enterococcus faecalis after 24 hr by two-fold serial dilution method
# Candida [1] = experiment: Antifungal activity against Candida-51 after 72 to 96 hr by two-fold serial dilution method
# Aspergillus niger = experiment: Antifungal activity against Aspergillus niger after 72 to 96 hr by two-fold serial dilution method
# Bacillus subtilis = experiment: Antibacterial activity against Bacillus subtilis after 24 hr by two-fold serial dilution method
# Pseudomonas aeruginosa = experiment: Antibacterial activity against Pseudomonas aeruginosa after 24 hr by twofold serial dilution method
# Aspergillus flavus = experiment: Antifungal activity against Aspergillus flavus after 72 to 96 hr by two-fold serial dilution method
# Candida [2] = experiment: Antifungal activity against Candida-6 after 72 to 96 hr by two-fold serial dilution method
SMILES,MIC (Staphylococcus aureus),MIC (Enterococcus faecalis),MIC (Candida [1]),MIC (Aspergillus niger),MIC (Bacillus subtilis),MIC (Pseudomonas aeruginosa),MIC (Aspergillus flavus),MIC (Candida [2])
CC(C)C1C(=O)CC(c2ccco2)NC1c1ccco1 (stereo unspecified),> 100 µg/mL,> 100 µg/mL,25 µg/mL,> 100 µg/mL,100 µg/mL,50 µg/mL,> 100 µg/mL,50 µg/mL
CC(C)C1/C(=N/O)CC(c2ccco2)NC1c1ccco1 (stereo unspecified),50 µg/mL,50 µg/mL,50 µg/mL,100 µg/mL,50 µg/mL,100 µg/mL,25 µg/mL,50 µg/mL
CC(C)C1C(=O)CC(c2ccco2)N(C=O)C1c1ccco1 (stereo unspecified),50 µg/mL,25 µg/mL,50 µg/mL,50 µg/mL,25 µg/mL,50 µg/mL,50 µg/mL,25 µg/mL
CC(=O)N1C(c2ccco2)CC(=O)C(C(C)C)C1c1ccco1 (stereo unspecified),12.5 µg/mL,50 µg/mL,25 µg/mL,50 µg/mL,12.5 µg/mL,25 µg/mL,50 µg/mL,50 µg/mL
CC(C)C1C(=O)CC(c2ccco2)N(C(=O)c2ccccc2)C1c1ccco1 (stereo unspecified),25 µg/mL,50 µg/mL,12.5 µg/mL,25 µg/mL,12.5 µg/mL,50 µg/mL,25 µg/mL,12.5 µg/mL
CCC(=O)N1C(c2ccco2)CC(=O)C(C(C)C)C1c1ccco1 (stereo unspecified),25 µg/mL,50 µg/mL,50 µg/mL,50 µg/mL,12.5 µg/mL,25 µg/mL,25 µg/mL,12.5 µg/mL
C[C@@H]1[C@H](O)[C@@H](C)/C=C/C=C/C=C/C=C/C=C/C=C/C=C/[C@H](O[C@@H]2O[C@H](C)[C@@H](O)[C@H](N)[C@@H]2O)C[C@@H]2O[C@](O)(C[C@@H](O)C[C@@H](O)[C@H](O)CC[C@@H](O)C[C@@H](O)CC(=O)O[C@H]1C)C[C@H](O)[C@H]2C(=O)O [AMPHOTERICIN B],–,–,25 µg/mL,50 µg/mL,–,–,50 µg/mL,25 µg/mL
CN[C@@H]1[C@H](O[C@H]2[C@H](O[C@H]3[C@H](O)[C@@H](O)[C@H](N=C(N)N)[C@@H](O)[C@@H]3N=C(N)N)O[C@@H](C)[C@]2(O)C=O)O[C@@H](CO)[C@H](O)[C@H]1O [STREPTOMYCIN],25 µg/mL,50 µg/mL,–,–,12.5 µg/mL,25 µg/mL,–,–
